Legend:
Type in all cases: in vivo
Spodoptera litura = Spodoptera litura diet incorporation method; conditions: third instar larvae, dead and moribund combined, 96 h after release
How it was run: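 Compound milled to <2 μm average particle size in surfactant, dispersed in water (500 ppm stock dispersion), then mixed into semi-synthetic diet at ~50° C. One starved third-instar larva per diet cell, 25° C, 70% RH; percent mortality (dead plus moribund) scored at 96 h.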

Plutella xylostella = test: whole plant or invertebrate; conditions: foliar, cabbage leaf dip, second instar larvae, dead and moribund combined, 72 h after release
How it was run: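 Compounds milled with zirconia beads into surfactant dispersion (500 ppm stock), diluted in 0.01% Triton-X. Cabbage leaves dipped 10 s, shade-dried 20 min; one second-instar larva per cell, 25 °C, 70% RH. Mortality (dead plus moribund) scored at 72 h.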

Helicoverpa armigera = Helicoverpa armigera diet incorporation method; conditions: third instar larvae, dead and moribund combined, 96 h after release
How it was run: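 500 ppm stock of compound milled with surfactant and zirconia beads to average particle size below 2 μm, dispersed in DM water, diluted as needed, and mixed into semi-synthetic diet at about 50° C. Single starved third-instar larvae per cell, held at 25° C., 70% RH; dead plus moribund larvae scored as percent mortality at 96 h.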

Measured: mortality at 300 ppm

CCNC(=O)c1c(NC(=O)c2cc(Cn3nnc(C(F)(F)F)n3)nn2-c2ncccc2Cl)c(C)cc2ccnn12 [Compound 167, 6-(1-(3-chloropyridin-2-yl)-3-((5-(trifluoromethyl)-2H-tetrazol-2-yl)methyl)-1H-pyrazole-5-carboxamido)-N-ethyl-5-methylpyrazolo[1,5-a]pyridine-7-carboxamide]
> 70%: all assays above

COc1cc(C(=O)Nc2c(Cl)cc3ccnn3c2C(=O)NCC(F)(F)F)n(-c2ncccc2Cl)n1 [Compound 137, 5-chloro-6-(1-(3-chloropyridin-2-yl)-3-methoxy-1H-pyrazole-5-carboxamido)-N-(2,2,2-trifluoroethyl)pyrazolo[1,5-a]pyridine-7-carboxamide]
> 70%: all assays above

COCCNC(=O)c1c(NC(=O)c2cc(Br)nn2-c2ncccc2Cl)c(C)cc2ccnn12 [Compound 7, 6-(3-bromo-1-(3-chloropyridin-2-yl)-1H-pyrazole-5-carboxamido)-N-(2-methoxyethyl)-5-methylpyrazolo[1,5-a]pyridine-7-carboxamide]
> 70%: all assays above

CSCCNC(=O)c1c(NC(=O)c2cc(Br)nn2-c2ncccc2Cl)c(C)cc2ccnn12 [Compound 37, 6-(3-bromo-1-(3-chloropyridin-2-yl)-1H-pyrazole-5-carboxamido)-5-methyl-N-(2-(methylthio)ethyl)pyrazolo[1,5-a]pyridine-7-carboxamide]
> 70%: all assays above

CCNC(=O)c1c(NC(=O)c2cc(OCC(F)(F)F)nn2-c2ncccc2Cl)c(C)cc2ccnn12 [Compound 10, 6-(1-(3-chloropyridin-2-yl)-3-(2,2,2-trifluoroethoxy)-1H-pyrazole-5-carboxamido)-N-ethyl-5-methylpyrazolo[1,5-a]pyridine-7-carboxamide]
> 70%: all assays above

Cc1cc2ccnn2c(C(=O)NCC2CC2)c1NC(=O)c1cc(C(F)(F)F)nn1-c1ncccc1Cl [Compound 62, 6-(1-(3-chloropyridin-2-yl)-3-(trifluoromethyl)-1H-pyrazole-5-carboxamido)-N-(cyclopropylmethyl)-5-methylpyrazolo[1,5-a]pyridine-7-carboxamide]
> 70%: all assays above

Cc1cc2ccnn2c(C(=O)NC(C)(C)CO)c1NC(=O)c1cc(Br)nn1-c1ncccc1Cl [Compound 196, 6-(3-bromo-1-(3-chloropyridin-2-yl)-1H-pyrazole-5-carboxamido)-N-(1-hydroxy-2-methylpropan-2-yl)-5-methylpyrazolo[1,5-a]pyridine-7-carboxamide]
> 70%: all assays above

COc1cc(C(=O)Nc2c(C)cc3ccnn3c2C(=O)NC(C)(C)C)n(-c2ncccc2Cl)n1 [Compound 30, N-(tert-butyl)-6-(1-(3-chloropyridin-2-yl)-3-methoxy-1H-pyrazole-5-carboxamido)-5-methylpyrazolo[1,5-a]pyridine-7-carboxamide]
> 70%: all assays above

COc1cc(C(=O)Nc2c(C)cc3ccnn3c2C(=O)NC2CC2)n(-c2ncccc2Cl)n1 [Compound 26, 6-(1-(3-chloropyridin-2-yl)-3-methoxy-1H-pyrazole-5-carboxamido)-N-cyclopropyl-5-methylpyrazolo[1,5-a]pyridine-7-carboxamide]
> 70%: all assays above

Cc1cc2ccnn2c(C(=O)NCC2CC2)c1NC(=O)c1cc(N2CC(F)(F)C2)nn1-c1ncccc1Cl [Compound 67, 6-(1-(3-chloropyridin-2-yl)-3-(3,3-difluoroazetidin-1-yl)-1H-pyrazole-5-carboxamido)-N-(cyclopropylmethyl)-5-methylpyrazolo[1,5-a]pyridine-7-carboxamide]
> 70%: all assays above

Cc1cc2ccnn2c(C(=O)NC(C)C2CC2)c1NC(=O)c1cc(Br)nn1-c1ncccc1Cl (stereo not drawn) [Compound 95, 6-(3-bromo-1-(3-chloropyridin-2-yl)-1H-pyrazole-5-carboxamido)-N-(1-cyclopropylethyl)-5-methylpyrazolo[1,5-a]pyridine-7-carboxamide]
> 70%: all assays above

Cc1cc2ccnn2c(C(=O)NCC#N)c1NC(=O)c1cc(Br)nn1-c1ncccc1Cl [Compound 28, 6-(3-bromo-1-(3-chloropyridin-2-yl)-1H-pyrazole-5-carboxamido)-N-(cyanomethyl)-5-methylpyrazolo[1,5-a]pyridine-7-carboxamide]
> 70%: all assays above

COc1cc(C(=O)Nc2c(Cl)cc3ccnn3c2C(=O)NC(C)C)n(-c2ncccc2Cl)n1 [Compound 133, 5-chloro-6-(1-(3-chloropyridin-2-yl)-3-methoxy-1H-pyrazole-5-carboxamido)-N-isopropylpyrazolo[1,5-a]pyridine-7-carboxamide]
> 70%: all assays above

O=C(Nc1c(Br)cc2ccnn2c1C(=O)NCC1CC1)c1cc(Br)nn1-c1ncccc1Cl [Compound 54, 5-bromo-6-(3-bromo-1-(3-chloropyridin-2-yl)-1H-pyrazole-5-carboxamido)-N-(cyclopropylmethyl)pyrazolo[1,5-a]pyridine-7-carboxamide]
> 70%: all assays above

CNC(=O)c1c(NC(=O)c2cc(OCC(F)(F)F)nn2-c2ncccc2Cl)c(C)cc2ccnn12 [Compound 9, 6-(1-(3-chloropyridin-2-yl)-3-(2,2,2-trifluoroethoxy)-1H-pyrazole-5-carboxamido)-N,5-dimethylpyrazolo[1,5-a]pyridine-7-carboxamide]
> 70%: all assays above

COc1cc(C(=O)Nc2c(Br)cc3ccnn3c2C(=O)NC(C)C(F)(F)F)n(-c2ncccc2Cl)n1 (stereo not drawn) [Compound 226, 5-bromo-6-(1-(3-chloropyridin-2-yl)-3-methoxy-1H-pyrazole-5-carboxamido)-N-(1,1,1-trifluoropropan-2-yl)pyrazolo[1,5-a]pyridine-7-carboxamide]
> 70%: all assays above

Cc1cc2ccnn2c(C(=O)NCC2CC2)c1NC(=O)c1cc(OCC(F)(F)F)nn1-c1ncccc1Cl [Compound 14, 6-(1-(3-chloropyridin-2-yl)-3-(2,2,2-trifluoroethoxy)-1H-pyrazole-5-carboxamido)-N-(cyclopropylmethyl)-5-methylpyrazolo[1,5-a]pyridine-7-carboxamide]
> 70%: all assays above

Cc1cc2ccnn2c(C(=O)NCC(F)(F)F)c1NC(=O)c1cc(C(F)(F)F)nn1-c1ncccc1Cl [Compound 109, 6-(1-(3-chloropyridin-2-yl)-3-(trifluoromethyl)-1H-pyrazole-5-carboxamido)-5-methyl-N-(2,2,2-trifluoroethyl)pyrazolo[1,5-a]pyridine-7-carboxamide]
> 70%: all assays above

COc1cc(C(=O)Nc2c(Cl)cc3ccnn3c2C(=O)NC2CC2)n(-c2ncccc2Cl)n1 [Compound 132, 5-chloro-6-(1-(3-chloropyridin-2-yl)-3-methoxy-1H-pyrazole-5-carboxamido)-N-cyclopropylpyrazolo[1,5-a]pyridine-7-carboxamide]
> 70%: all assays above

CCNC(=O)c1c(NC(=O)c2cc(Cn3nnc(C(F)(F)F)n3)nn2-c2ncccc2Cl)c(Cl)cc2ccnn12 [Compound 154, 5-chloro-6-(1-(3-chloropyridin-2-yl)-3-((5-(trifluoromethyl)-2H-tetrazol-2-yl)methyl)-1H-pyrazole-5-carboxamido)-N-ethylpyrazolo[1,5-a]pyridine-7-carboxamide]
> 70%: all assays above

COCCNC(=O)c1c(NC(=O)c2cc(OC)nn2-c2ncccc2Cl)c(C)cc2ccnn12 [Compound 33, 6-(1-(3-chloropyridin-2-yl)-3-methoxy-1H-pyrazole-5-carboxamido)-N-(2-methoxyethyl)-5-methylpyrazolo[1,5-a]pyridine-7-carboxamide]
> 70%: all assays above

Cc1cc2ccnn2c(C(=O)NCC(F)(F)F)c1NC(=O)c1cc(Br)nn1-c1ncccc1Cl [Compound 96, 6-(3-bromo-1-(3-chloropyridin-2-yl)-1H-pyrazole-5-carboxamido)-5-methyl-N-(2,2,2-trifluoroethyl)pyrazolo[1,5-a]pyridine-7-carboxamide]
> 70%: all assays above

CONC(=O)c1c(NC(=O)c2cc(Br)nn2-c2ncccc2Cl)c(Br)cc2ccnn12 [Compound 87, 5-bromo-6-(3-bromo-1-(3-chloropyridin-2-yl)-1H-pyrazole-5-carboxamido)-N-methoxypyrazolo[1,5-a]pyridine-7-carboxamide]
> 70%: all assays above
